According to patent US7022719B2, “Preventing and reversing the formation of advance glycosylation endproducts” (Alteon, Inc., priority 1995, dated 2006):
Where a name gives a salt, the structure may show the parent alone. Read-outs that look alike come from different tables or passages of the source.

What was measured:
[1] = test system: AGE-BSA crosslinked to collagen; test: Cross-link Breaking Assay (sandwich enzyme immunoassay); type: biochemical; details: for Breaking Anti-AGE: anti-AGE antibody; for Breaking Anti-BSA: anti-BSA antibody
Description: The present invention also involves a novel sandwich enzyme immunoassay used to ascertain the ability of test compounds to “break” or reverse already formed advanced glycosylation endproducts by detecting the breaking of AGE (Advanced glycosylation endproduct) moieties from AGE-crosslinked protein. This assay comprises: • a) incubation of AGE-modified bovine serum albumin (AGE BSA) on collagen-coated wells of microtiter plates for a period of 2–6 hours' at a temperature of 37° C.; • b) washing of the wells with PBS-Tween; • c) application of the test compounds to the washed wells of step b; • d) incubation of the test compounds applied to the washed wells for an additional 12–24 hours at a temperature of about 37° C.; and • e) detection of the AGE-breaking using an antibody raised against AGE-ribonuclease or cross-link breaking with an antibody against BSA.
In order to ascertain the ability of the compounds of the instant invention to “break” or reverse already formed advanced glycosylation endproducts, a novel sandwich enzyme immunoassay was developed which detects breaking of AGE (Advanced glycosylation endproduct) moieties from AGE-crosslinked protein. The assay utilizes collagen-coated 96 well microtiter plates that are obtained commercially. […] Following an incubation period of 16 hours (37° C.) cross-link-breaking is detected using an antibody raised against AGE-ribonuclease or with an antibody against BSA. […] Details of the assay are as follows:
Methods Preparation of Solutions and Buffers • 1. AGE-BSA stock solutions were prepared as follows. Sodium phosphate buffer (0.4 M) was prepared by dissolving 6 grams of monobasic sodium phosphate in 100 ml of distilled water, 7 grams of dibasic sodium phosphate (0.4 M) in 100 ml of distilled water and adjusting the pH of the dibasic solution to 7.4 with the monobasic solution. Sodium azide (0.02 grams) was added per 100 ml volume to inhibit bacterial growth. The BSA solution was prepared as follows: 400 mg of Type V BSA (bovine serum albumin) was added for each ml of sodium phosphate buffer (above). A 400 mM glucose solution was prepared by dissolving 7.2 grams of dextrose in 100 ml of sodium phosphate buffer (above). The BSA and glucose solutions were mixed 1:1 and incubated at 37° C. for 12 weeks. The pH of the incubation mixture was monitored weekly and adjusted to pH 7.4 if necessary. After 12 weeks, the AGE-BSA solution was dialyzed against PBS for 48 hours with four buffer changes, each at a 1:500 ratio of solution to dialysis buffer. Protein concentration was determined by the micro-Lowry method. The AGE-BSA stock solution was aliquoted and stored at −20° C. […] Working solutions for crosslinking and breaking studies were prepared as follows. Test compounds were dissolved in PBS and the pH was adjusted to pH 7.4 if necessary. AGE-BSA stock solution was diluted in PBS to measure maximum crosslinking and in the inhibitor solution for testing inhibitory activity of compounds. The concentration of AGE-BSA necessary to achieve the optimum sensitivity was determined by initial titration of each lot of AGE-BSA. • 3. Wash buffer (“PBS-Tween”) was, prepared as follows. PBS was prepared by dissolving the following salts in one liter of distilled water: NaCl, 8 grams; KC1, 0.2 gram, KH2PO4. […] Tween-20 was added to a final concentration of 0.05% (vol/vol). • 4. Substrates for detection of secondary antibody binding were prepared by diluting the HRP substrate buffer 1:10 in distilled water and mixing with ABTS chromogen 1:50 just prior to use. Assay Procedures • 1. Biocoat plates were blocked with 300 μl of “Superbloc”. Plates were blocked for one hour at room temperature and were washed with PBS-Tween three times with the Dynatech platewasher before addition of test reagents. • 2. Each experiment was set up in the following manner. The first three wells of the Biocoat plate were used for the reagent blank.

[2] = test system: cross-linking of glycated bovine serum albumin (AGE-BSA) to rat tail tendon collagen; test: Cross-linking Inhibition Assay; details: for IC50: inhibition of AGE-BSA cross-linking to collagen-coated plate
Description: The following method was used to evaluate the ability of the compounds of the present invention to inhibit the cross-linking of glycated bovine serum albumin (AGE-BSA) to the rat tail tendon collagen-coated 96-well plate.
The blocking solution was removed from the wells by, washing the plate twice with PBS-'Tween 20 solution (0.05% Tween 20) using a NUNq-multiprobe or Dynatech ELISA-plate washer. Cross-linking of AGE-BSA (1 to 10 mg per well depending on the batch of AGE-BSA) to rat tail tendon collagen coated plate was performed with and without the testing ‘compound dissolved in PBS buffer at pH 7.4 at the desired concentrations by the, addition of 50 μl each of the AGE-BSA diluted in PBS or in the solution of test compound at 37° C. for 4 hours. Unbrowned BSA in PBS buffer with or without testing compound were added to the separate wells as the blanks. The un-cross-linked AGE-BSA was then removed by washing the wells three times with PBS-Tween buffer. The amount of AGE-BSA cross-linked to the tail tendon collagen-coated plate was then quantitated using a polyclonal antibody raised against AGE-RNase. After a one-hour incubation period, AGE antibody was removed by washing 4 times with PBS-Tween.
The bound AGE antibody was then detected with the addition of horseradish peroxidase-conjugated secondary antibody—goat anti-rabbit immunoglobulin and incubation for 30 minutes. […] The reaction was allowed for an additional 15 minutes and the absorbance was read at 410 nm in a Dynatech plate reader.

[3] = detection with anti-AGE antibody, read-out: IC50 (mM) Anti-AGE
[4] = detection with anti-BSA antibody, read-out: IC50 (mM) Anti-BSA

Compound	melting point	Breaking Anti-AGE ([1]; at 30 mM)	IC50 [1, 3] [mM]	IC50 [2] [mM]	also measured
C#CC[n+]1ccsc1.[Br-]	64 to 66 °C				
C#CC[n+]1cscc1C.[Br-]	213 to 215 °C				
C#CC[n+]1csc(C)c1.[Br-]	127 to 129 °C				
C#CC[n+]1csc(C)c1C.[Br-]	198 to 200 °C				
C#CC[n+]1csc(CCO)c1C.[Br-]	132 to 134 °C				
Cc1c(CCO)sc[n+]1CC(=O)C(C)(C)C.[Br-]	186 to 187 °C				
Cc1sc[n+](CC(=O)c2cc(C(C)(C)C)c(O)c(C(C)(C)C)c2)c1C (as salt: bromide) [3-(2-(3′,5′-di-tert-butyl-4′-hydroxypheny].)-2-oxoethyl]-4,5-dimethyl-thiazolium bromide]	243 to 244 °C (dec.)				
C=Cc1sc[n+](CC(=O)c2cc(C(C)(C)C)c(O)c(C(C)(C)C)c2)c1C (as salt: bromide) [3-(2-(3′,5′-tert-butyl-4′-hydroxyphenyl)-2-oxoethyl)-4-methyl-5-vinyl-thiazolium bromide]	208 to 209 °C				
COC(=O)c1ccc(NC(=O)C[n+]2csc(CCO)c2C)cc1O (as salt: bromide) [3-(2-(4′-carbmethoxy-3′-hydroxyanilino)-2-oxoethyl]-4-methyl-5-(2′-hydroxyethyl)-thiazolium bromide]	222 to 223 °C				
Cc1c[n+](CC(=O)c2cc(C(C)(C)C)c(O)c(C(C)(C)C)c2)cs1 (as salt: bromide) [3-[2-(3′,5′-di-tert-butyl-4′-hydroxyphenyl)-2-oxoethyl)-5-methyl-thiazolium bromide]	210 to 211 °C				
Cc1csc[n+]1CC(N)=O.[Br-] [3-(2-amino-2-oxoethyl)-4-methyl-thiazolium bromide]		89%	4.7	0.7	Breaking Anti-BSA ([1]; at 30 mM): 44%; IC50 [1, 4]: 38.6 mM
NC(=O)C[n+]1csc2ccccc21.[Br-] [3-(2-amino-2-oxoethyl)-benzothiazolium bromide]			0.4	0.02	Breaking Anti-AGE ([1]; concentration not given): 77%; Breaking Anti-BSA ([1]; concentration not given): 65%; IC50 [1, 4]: 0.52 mM
COC(=O)C[n+]1csc(C)c1.[Br-] [3-(2-methoxy-2-oxoethyl)-5-methyl-thiazolium bromide]		72%		3.2	Breaking Anti-BSA ([1]; at 30 mM): 27%
COC(=O)C[n+]1csc2ccccc21.[Br-] [3-(2-methoxy-2-oxoethyl)-benzothiazolium bromide]		66%	1.2	> 10	Breaking Anti-BSA ([1]; at 30 mM): 37%; IC50 [1, 4]: 25.9 mM
Cc1sc[n+](CC(=O)c2ccccc2)c1C.[Br-] [3-(2-phenyl-2-oxoethyl)-4,5-dimethylthiazolium bromide]		56%/ND (30)			Relative Cross-link Inhibition (at 10 mM) ([2]; at 10 mM): 37%
Cc1c(CCO)sc[n+]1CC(=O)c1ccccc1.[Br-] [3-(2-phenyl-2-oxoethyl)-4-methyl-5-(2-hydroxyethyl)-thiazolium bromide]		67%	14.3	> 10	Breaking Anti-BSA ([1]; at 30 mM): 13%
Cc1csc[n+]1CC(=O)c1ccccc1.[Br-] [3-(2-phenyl-2-oxoethyl)-4-methylthiazolium bromide]		68%	0.23	5.6	Breaking Anti-BSA ([1]; at 30 mM): 66%; IC50 [1, 4]: 0.3 mM
Cc1c[n+](CC(=O)c2cc(C(C)(C)C)c(O)c(C(C)(C)C)c2)cs1 [3-[2-(3′,5′-di-tert-butyl-4′-hydroxyphenyl)-2-oxoethyl)-5-methyl-thiazolium bromide]			3	0.78	Breaking Anti-AGE ([1]; at 1 mM): 65%; Breaking Anti-AGE ([1]; at 10 mM): 48%; Breaking Anti-BSA ([1]; at 1 mM): 69%; Breaking Anti-BSA ([1]; at 10 mM): 49%
Cc1c(CCOCc2c(Cl)cccc2Cl)sc[n+]1N.Cc1cc(C)c(S(=O)(=O)[O-])c(C)c1 [3-amino-4-methyl-5-(2(2′,6′-dichlorobenzyloxy)ethyl]-thiazolium mesitylenesulfonate]					Breaking Anti-AGE ([1]; at 10 mM): 31%; Breaking Anti-BSA ([1]; at 10 mM): 54%; Relative Cross-link Inhibition ([2]; 3 mM): 26.5% (3 mm)
